≈ marks a conversion by molar mass, not a printed value.
Columns and labels:
[1] = tested on: BJ-derived cell lines (BJeLR, DRD, BJeHLT, BJeH); assay: potency and genotype-selective lethality in BJ-derived isogenic cell lines; format: cell-based, human; conditions: for potency in HRAS^G12V-overexpressing cell lines: BJeLR, DRD cells
[2] = metabolic stability in mouse liver microsomes; format: in vitro ADME; conditions: for half-life: mouse, liver microsomes, pH 7.4; for metabolic stability: mouse liver microsomes, 37 °C, pH 7.4, NADPH-generating system
water solubility = format: physicochemical
[3] = tested on: HT-1080 human fibrosarcoma cell line; assay: growth inhibition of HT-1080 cells; format: cell-based; conditions: for growth inhibition: HT-1080 cells, 48 h treatment
[4] = stability in mouse plasma; format: in vitro ADME; conditions: 500 ng/mL, 37 °C, up until 120 min
[5] = tested on: NRAS mutant human HT-1080 fibrosarcoma; conditions: nude mice; cited from earlier work

| metabolic stability [2] | SMILES | potency in HRAS^G12V-overexpressing cell lines [1] | half-life [2] | further results |
| --- | --- | --- | --- | --- |
| medium to poor metabolic stability | C=CCN1CCN(CC(=O)c2ccc(OC(C)C)c(-n3c(CN4CCN(C(=O)COc5ccc(Cl)cc5)CC4)nc4ccccc4c3=O)c2)CC1 [APKE, N-allylpiperazine ketone erastin] | – | – | – |
| medium to poor metabolic stability | CC(C)Oc1ccc(C(=O)CF)cc1-n1c(CN2CCN(C(=O)COc3ccc(Cl)cc3)CC2)nc2ccccc2c1=O [FKE, α-fluoro ketone erastin] | low nanomolar potencies | – | – |
| medium to poor metabolic stability | CC(C)Oc1ccc(C(=O)CN2CCN(C)CC2)cc1-n1c(CN2CCN(C(=O)COc3ccc(Cl)cc3)CC2)nc2ccccc2c1=O [MPKE, N-methylpiperazine ketone erastin] | – | – | – |
| medium to poor metabolic stability | COc1ccc(CN2CCN(CC(=O)c3ccc(OC(C)C)c(-n4c(CN5CCN(C(=O)COc6ccc(Cl)cc6)CC5)nc5ccccc5c4=O)c3)CC2)cc1 [PMB-PKE, N-p-methoxybenzylpiperazine ketone erastin] | – | – | – |

Second part, the molecule before the results:

| SMILES | metabolic stability [2] | potency in HRAS^G12V-overexpressing cell lines [1] | half-life [2] | further results |
| --- | --- | --- | --- | --- |
| CC(C)Oc1ccc(C=O)cc1-n1c(CN2CCN(C(=O)COc3ccc(Cl)cc3)CC2)nc2ccccc2c1=O [AE, aldehyde erastin, reference compound] | – | low nanomolar potencies | < 5 min | – |
| CCOc1ccccc1-n1c(C(C)N2CCN(C(=O)COc3ccc(Cl)cc3)CC2)nc2ccccc2c1=O (centres unmarked) [Erastin, erastin] | – | – | – | solubility (water solubility): 86 µM (≈ 47 µg/mL) |
| CC(C)Oc1ccc(C(=O)Cn2ccnc2)cc1-n1c(CN2CCN(C(=O)COc3ccc(Cl)cc3)CC2)nc2ccccc2c1=O [IKE, imidazole ketone erastin] | – | low nanomolar potencies | – | selective lethality to BJeLR and DRD cells compared to BJeH and BJeHLT cells ([1]; 4 isogenic BJ-derived cell lines): selective lethality; growth inhibition [3]: complete growth inhibition; GI50 ([3]; Homo sapiens, HT-1080, 48 h): 310 nM; stability in mouse plasma [4]: remained stable |
| CC(=O)c1ccc(OC(C)C)c(-n2c(CN3CCN(C(=O)COc4ccc(Cl)cc4)CC3)nc3ccccc3c2=O)c1 [KE] | – | low nanomolar potencies | < 5 min | – |
| CC(C)Oc1ccc(CN2CCNCC2)cc1-n1c(CN2CCN(C(=O)COc3ccc(Cl)cc3)CC2)nc2ccccc2c1=O [PE, piperazine erastin] | – | – | – | effect on the growth of already established tumors [5]: limited effect |
| CC(C)Oc1ccc(C(=O)CN2CCNCC2)cc1-n1c(CN2CCN(C(=O)COc3ccc(Cl)cc3)CC2)nc2ccccc2c1=O [PKE, piperazine ketone erastin] | – | low nanomolar potencies | > 90 min | growth inhibition [3]: complete growth inhibition; stability in mouse plasma [4]: remained stable |

Source: article PMC4653046 (Bioorganic & medicinal chemistry letters, 2015)
